By IC50 is commonly meant the concentration that gives 50% inhibition. The CC50 is the concentration that lowers cell viability or growth by half. In general, AC50 refers to the concentration at which the activity in the assay is half-maximal. By EC50 is commonly meant the concentration giving half of the maximal effect.

Experiment [1] is described as follows: viability inhibitors of stage V gametocytes – luminescence, dose response (AID 1117278).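 Also: gametocytes exposed to compound for 24 hours.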 It counts as functional, cell-based.
The nature of experiment [2]: viability loss in human Jurkat cells – cell-based, luminescence, cytotoxicity control for P. falciparum gametocyte viability project, dose response (AID 1117277).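 Also: potency reflects loss of cellular ATP meaning fewer viable cells.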 Type of experiment: functional.
Experiment [3] concerns the target T1, 1-phosphatidylinositol 4,5-bisphosphate phosphodiesterase beta-3 (Homo sapiens, UniProt Q01970).
T1 sequence (Q01970 whole entry): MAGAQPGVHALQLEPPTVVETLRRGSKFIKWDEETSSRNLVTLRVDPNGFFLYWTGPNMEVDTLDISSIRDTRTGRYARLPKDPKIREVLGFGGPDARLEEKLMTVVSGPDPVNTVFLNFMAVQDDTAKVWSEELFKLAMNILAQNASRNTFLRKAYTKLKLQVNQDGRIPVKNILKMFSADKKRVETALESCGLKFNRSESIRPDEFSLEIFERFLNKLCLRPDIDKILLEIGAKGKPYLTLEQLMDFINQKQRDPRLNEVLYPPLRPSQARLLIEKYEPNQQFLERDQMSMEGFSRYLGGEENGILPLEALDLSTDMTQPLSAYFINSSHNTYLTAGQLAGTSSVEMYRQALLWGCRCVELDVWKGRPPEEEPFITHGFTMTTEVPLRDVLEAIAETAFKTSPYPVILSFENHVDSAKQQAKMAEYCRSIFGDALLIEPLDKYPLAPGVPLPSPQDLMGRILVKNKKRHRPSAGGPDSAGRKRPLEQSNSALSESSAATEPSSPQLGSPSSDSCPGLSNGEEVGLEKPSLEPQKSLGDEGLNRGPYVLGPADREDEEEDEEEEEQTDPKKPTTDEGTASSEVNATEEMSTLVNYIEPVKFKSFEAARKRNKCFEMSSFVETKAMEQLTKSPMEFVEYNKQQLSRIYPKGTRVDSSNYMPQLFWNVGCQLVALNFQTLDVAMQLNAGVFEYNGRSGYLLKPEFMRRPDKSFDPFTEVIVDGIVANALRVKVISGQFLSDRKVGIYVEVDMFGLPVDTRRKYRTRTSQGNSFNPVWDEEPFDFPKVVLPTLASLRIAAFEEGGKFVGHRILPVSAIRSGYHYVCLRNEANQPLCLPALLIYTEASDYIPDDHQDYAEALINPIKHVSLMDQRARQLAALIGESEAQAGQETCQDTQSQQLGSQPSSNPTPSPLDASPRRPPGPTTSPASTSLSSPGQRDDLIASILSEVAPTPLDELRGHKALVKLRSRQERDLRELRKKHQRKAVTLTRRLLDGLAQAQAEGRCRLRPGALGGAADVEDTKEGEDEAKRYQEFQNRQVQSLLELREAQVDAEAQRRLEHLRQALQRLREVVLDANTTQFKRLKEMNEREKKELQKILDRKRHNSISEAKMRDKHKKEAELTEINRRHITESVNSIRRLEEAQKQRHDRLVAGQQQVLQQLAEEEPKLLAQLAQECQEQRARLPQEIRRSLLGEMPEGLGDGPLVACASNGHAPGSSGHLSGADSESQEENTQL
Briefly: Fluorescence-based biochemical high throughput dose response assay to identify inhibitors of phospholipase C isozymes (PLC-B3).

The target of experiment [4] is T2, 1-phosphatidylinositol 4,5-bisphosphate phosphodiesterase gamma-1 (Homo sapiens, UniProt P19174).
T2 sequence (P19174 whole entry): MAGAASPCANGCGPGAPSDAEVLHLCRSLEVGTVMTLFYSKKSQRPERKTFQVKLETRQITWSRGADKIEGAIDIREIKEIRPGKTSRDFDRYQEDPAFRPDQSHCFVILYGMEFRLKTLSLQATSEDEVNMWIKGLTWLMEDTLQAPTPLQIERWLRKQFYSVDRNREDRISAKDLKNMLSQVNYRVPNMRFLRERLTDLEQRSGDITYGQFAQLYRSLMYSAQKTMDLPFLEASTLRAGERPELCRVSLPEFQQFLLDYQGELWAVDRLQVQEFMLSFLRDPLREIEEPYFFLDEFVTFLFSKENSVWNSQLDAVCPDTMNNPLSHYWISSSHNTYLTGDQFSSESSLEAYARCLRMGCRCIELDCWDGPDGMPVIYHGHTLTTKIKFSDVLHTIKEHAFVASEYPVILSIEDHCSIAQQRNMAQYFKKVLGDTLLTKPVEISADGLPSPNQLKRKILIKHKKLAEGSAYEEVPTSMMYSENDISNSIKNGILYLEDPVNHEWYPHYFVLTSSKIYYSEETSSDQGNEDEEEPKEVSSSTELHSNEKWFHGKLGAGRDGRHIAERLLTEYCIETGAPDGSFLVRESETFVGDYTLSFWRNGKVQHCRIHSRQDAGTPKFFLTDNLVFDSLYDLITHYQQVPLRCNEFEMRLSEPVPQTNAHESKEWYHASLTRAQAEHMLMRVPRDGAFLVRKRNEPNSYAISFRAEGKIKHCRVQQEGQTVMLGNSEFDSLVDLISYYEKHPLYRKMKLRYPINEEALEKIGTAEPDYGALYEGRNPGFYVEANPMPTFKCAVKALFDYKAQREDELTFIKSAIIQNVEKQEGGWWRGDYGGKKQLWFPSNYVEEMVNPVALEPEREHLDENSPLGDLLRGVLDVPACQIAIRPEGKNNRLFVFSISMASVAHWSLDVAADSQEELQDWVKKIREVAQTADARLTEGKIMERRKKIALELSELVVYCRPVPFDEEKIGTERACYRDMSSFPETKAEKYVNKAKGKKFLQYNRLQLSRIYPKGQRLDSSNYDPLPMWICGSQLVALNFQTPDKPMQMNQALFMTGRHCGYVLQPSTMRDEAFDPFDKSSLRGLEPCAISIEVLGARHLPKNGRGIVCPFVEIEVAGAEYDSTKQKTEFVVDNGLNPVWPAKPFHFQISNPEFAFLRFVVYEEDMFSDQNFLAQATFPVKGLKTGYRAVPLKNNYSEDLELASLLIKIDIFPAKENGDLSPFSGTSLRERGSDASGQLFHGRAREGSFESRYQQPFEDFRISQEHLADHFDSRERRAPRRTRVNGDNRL
The experiment is described as follows: Counterscreen for inhibitors of phospholipase C isozymes (PLC-B3): Fluorescence-based biochemical high throughput dose response assay to identify inhibitors of phospholipase C isozymes (PLC-gamma1). (In general: The purpose of a counterscreen is to sort out artefacts and off-target activity.)

Experiment [5] deals with Prothrombin (Homo sapiens, UniProt P00734). The experiment is described as follows: Thrombin 1536 HTS Dose Response Confirmation. [Related pubchem assays: 1046 (Thrombin 1536 HTS; hits were confirmed in this assay)]. Type of experiment: functional.
Experiment [6] is described as follows: M. tuberculosis H37Rv growth inhibitors, H37Rv strain (AID 1626). It counts as functional.
In experiment [7] the target is T3, 14-3-3 protein gamma (Homo sapiens, UniProt P61981).
T3 sequence (P61981 whole entry): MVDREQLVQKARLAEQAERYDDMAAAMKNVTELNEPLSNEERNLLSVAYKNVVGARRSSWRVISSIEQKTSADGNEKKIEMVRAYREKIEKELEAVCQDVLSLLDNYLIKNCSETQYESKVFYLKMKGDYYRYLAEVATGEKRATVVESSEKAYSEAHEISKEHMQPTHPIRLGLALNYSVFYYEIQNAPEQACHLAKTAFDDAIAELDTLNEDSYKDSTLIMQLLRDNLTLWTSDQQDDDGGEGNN
The experiment is described as follows: modulators of 14-3-3 gamma client binding – dose response (AID 711). Type of experiment: functional.

Experiment [8] can be described thus: viability loss in Vero cells – cytotoxicity control for Vif-APOBEC3G degradation inhibitor project, dose response (AID 1117358). It counts as functional. The note with it: Vero.
Experiment [9] deals with T4, Cytochrome P450 1A2 (Homo sapiens, UniProt P05177).
T4 sequence (P05177 whole entry): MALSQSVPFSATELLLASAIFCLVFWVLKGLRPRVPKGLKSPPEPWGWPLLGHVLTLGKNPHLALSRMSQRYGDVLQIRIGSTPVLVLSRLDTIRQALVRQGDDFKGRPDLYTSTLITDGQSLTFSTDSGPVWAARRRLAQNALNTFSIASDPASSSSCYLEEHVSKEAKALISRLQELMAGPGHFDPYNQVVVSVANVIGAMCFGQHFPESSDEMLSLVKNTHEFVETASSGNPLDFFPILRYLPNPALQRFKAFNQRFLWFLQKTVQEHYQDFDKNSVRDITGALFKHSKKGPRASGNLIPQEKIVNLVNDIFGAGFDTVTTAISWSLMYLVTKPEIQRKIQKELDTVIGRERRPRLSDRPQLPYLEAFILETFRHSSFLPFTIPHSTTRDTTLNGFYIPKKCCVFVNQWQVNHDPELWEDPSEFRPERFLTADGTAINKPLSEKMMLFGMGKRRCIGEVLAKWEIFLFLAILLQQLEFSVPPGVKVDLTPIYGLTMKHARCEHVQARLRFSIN

Experiment [10] is described as follows: Luminescence Cell-Based Dose Confirmation HTS to Identify Activators of 5'UTR Stem-Loop Driven Alpha-Synuclein mRNA Translation in H4 Neuroglioblastoma Cells. [Related pubchem assays: 1829 (Project Summary), 1814 (Primary HTS)]. It counts as functional.
The subject of experiment [11] is H4. Briefly: Luminescence Cell-Based Dose Response HTS to Identify Activators of 5'UTR Stem-Loop Driven Prion Protein mRNA Translation in H4 Neuroglioblastoma Cells. [Related pubchem assays: 1829 (Project Summary), 1814 (Primary HTS)]. It counts as functional. Particulars: Homo sapiens.
Experiment [12] can be described thus: Luminescence Cell-Based Dose Response HTS to Identify Activators of Luciferase Translation or Activity in H4 […] Cells. [Related pubchem assays: 1829 (Project Summary), 1814 (Primary HTS)]. It counts as functional.
Experiment [13] in a line: growth inhibition of PfATP4-mutant resistant parasites – NITD609-resistant line, SYBR Green, dry powder, dose response (AID 1159571).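 Also: parasites synchronized at ring stage by sorbitol before testing.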 Type of experiment: functional, cell-based.
A short description of experiment [14]: growth inhibition of yeast DHODH-expressing 3D7 parasites – SYBR Green, dry powder samples, dose response (AID 1159570).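 Also: parasite growth measured after 72 hours of compound exposure.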 It counts as functional, cell-based.
Experiment [15] in a line: Dd2 malaria parasite growth inhibition potency – SYBR Green, dry powder samples, dose response (AID 1159566).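 Also: potency for growth inhibition with lower SYBR green DNA signal.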 Type of experiment: functional, cell-based.
Experiment [16] can be described thus: P. falciparum Dd2 growth inhibitors, dose response, SYBR Green, cherry-picked samples (AID 1159567). Type of experiment: functional, cell-based.
Experiment [17] in a line: toxicity to human HepG2 hepatoma cells – cell-based, plate reader, dry powder samples, cytotoxicity control, dose response (AID 1159569).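 Also: inhibitor potency with signal falling toward the positive control level.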 Type of experiment: functional.

Calls of active or inactive are those of the source.

Regarding `NS(=O)(=O)c1ccc(N2CCCC2=O)c([N+](=O)[O-])c1`, the IC50 was > 109 µM (inactive) in experiment [1] and > 83.2 µM (inactive) in experiment [2].
Regarding `COc1ccc(CCNCc2c(OC)ccc3ccccc23)cc1`, the IC50 in experiment [3] and in experiment [4] was > 123 µM (inactive) in each case.
With `CC(=O)n1nc(-c2ccc(C)cc2)nc1NCc1ccco1`, the IC50 in experiment [5] was 1.82 µM (active).
For the molecule `COc1ccc(NC(=O)CCc2nc(-c3ccccc3F)no2)cc1`, the IC50 in experiment [6] is > 100 µM (active).
`COC(=O)Cn1cc(C(=O)c2cccs2)c2ccccc21`: the IC50 in experiment [5] was > 50 µM (inconclusive).
In the case of `Cc1ccc(C(=O)NCC(C)(C)O)cc1`, the IC50 in [7] is on record as > 50 µM (not active).
With `Cc1ccc(NS(=O)(=O)c2ccc(OCC(=O)Nc3cccc([N+](=O)[O-])c3)c(C)c2)cc1`, the CC50 in experiment [8] is > 40 µM (active). The AC50 in [9] is 22.4 µM (inconclusive).
Regarding `COc1ccccc1-n1c(CNCC2CCCO2)nc2ccccc2c1=O` (stereo not given), the IC50 in experiment [3] and in experiment [4] was > 122 µM (inactive) each time.
`CCOc1cc(C2NC(=O)NC(O)(C(F)(F)F)C2C(=O)c2ccc(Cl)cc2)ccc1O` (stereo not given): the IC50 in experiment [5] is > 50 µM (not active).
For `COc1cc(C(=O)N2CCC(n3cnc4cc(F)ccc43)CC2)cc(OC)c1OC`, the figures for the IC50 in experiment [1] and in experiment [2] were > 109 µM (inactive) and > 83.3 µM (inactive), respectively.
For the molecule `Nc1ccccc1Nc1cc(-c2ccccc2)[nH]n1`, the EC50 is 14.1 µM (active) in [10], 12.1 µM (active) in [11] and 19.8 µM (active) in experiment [12]. Moreover, the IC50 in [6] was > 100 µM (active).
Turning to `CCOc1ccc(-n2cc(C(=O)N3CCN(C)CC3)c3cc(OC)c(OC)cc3c2=O)cc1`, the IC50 in [7] is > 50 µM (not active).
`COc1ccc(NC(=O)CSC2=NCCN2)cc1`: the IC50 in experiment [6] is > 100 µM (active).
Turning to `COc1ccccc1CN(C)C(C)C(=O)Nc1cccc(C(C)=O)c1` (stereo not given), the IC50 in experiment [1] was > 109 µM (inactive); in experiment [2], > 83.3 µM (inactive).
For the molecule `O=C1CS(=O)(=O)c2ccccc2N1`, the IC50 in [3] is > 123 µM (inactive); in experiment [4] it was 35.7 µM (inactive).
For the molecule `COc1ccc(NC(=O)Nc2ccc3c(c2)[C@@H]2C[C@H](CC(=O)N[C@@H](C)c4ccccc4)O[C@H](CO)[C@@H]2O3)cc1`, the AC50 in experiment [13] is 2.16 µM (active); in experiment [14] it was 35.3 µM (active); in [15] it was 1.62 µM (active); in [16], 2.22 µM (active); in experiment [17], > 100 µM (inactive).
The corresponding values for `COc1ccc2c3c(n(C)c2c1)[C@@H](CO)N(Cc1ccc(Cl)cc1)CC31CCN(CC2CC2)CC1` are 1.7 µM (active), 2.64 µM (active), 1.67 µM (active), 1.86 µM (active) and 22 µM (active).

These data come from ChEMBL document CHEMBL1201862, “PubChem BioAssay data set” (2004).
